Data taken from patent US9763445B2, “Safened herbicidal compositions comprising a pyridine carboxylic acid herbicide” (Dow AgroSciences, LLC, priority 2014, dated 2017).

Legend:
lambsquarters (CHEAL) = test: Postemergence greenhouse trial, % visual injury on lambsquarters; format: in vivo, Chenopodium album; details: CHEAL
In short: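 Plants at second or third true leaf stage, greenhouse-grown (14 h photoperiod, ~23/22° C.), sprayed postemergence with compounds alone or with safener cloquintocet-mexyl in 1.5% v/v Agri-dex crop oil at 187 L/ha. Visual injury scored 0–100% versus solvent-blank controls after 20-22 d; expected mixture effects by Colby's equation.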

kochia (KCHSC) = test: Postemergence greenhouse trial, % visual injury on kochia; format: in vivo, Kochia scoparia; details: KCHSC
In short: (§1)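 Herbicide rates g ae/ha, safener (cloquintocet-mexyl) rates g ai/ha; spray carrier 1.5% v/v crop oil concentrate, 187 L/ha, 2nd–3rd leaf stage. Rating: visual % injury at 20-22 d.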

wild mustard (SINAR) = test: Postemergence greenhouse trial, % visual injury on wild mustard; format: in vivo, Sinapis arvensis; details: SINAR
In short: as §1

spring wheat (TRZAS) = test: Postemergence greenhouse trial, % visual injury on spring wheat; format: in vivo, Triticum aestivum; details: TRZAS
In short: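 Postemergence greenhouse spray (187 L/ha, 1.5% v/v Agri-dex in water, acetone/DMSO stocks) on plants at second–third true leaf stage, ~23/22 °C, 14 h photoperiod; herbicides in g ae/ha, safener cloquintocet-mexyl in g ai/ha. Visual injury 0–100% versus solvent-blank controls after 20–22 d; Colby's equation gave expected mixture effects.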

[1] = compound 8 4.380 + CQC-m 0 g/ha

COC(=O)c1nc(-c2ccc3cc[nH]c3c2F)c(F)c(N)c1Cl [compound 8]
% visual injury, observed (Ob) (lambsquarters (CHEAL); [1]): 86% | % visual injury, observed (Ob) (lambsquarters (CHEAL); compound 8 8.75 + CQC-m 0 g/ha): 92% | % visual injury, observed (Ob) (lambsquarters (CHEAL); compound 8 17.5 + CQC-m 0 g/ha): 99% | % visual injury, observed (Ob) (lambsquarters (CHEAL); compound 8 35 + CQC-m 0 g/ha): 100% | % visual injury, observed (Ob) (lambsquarters (CHEAL); compound 8 70 + CQC-m 0 g/ha): 100% | % visual injury, observed (Ob) (kochia (KCHSC); [1]): 69% | % visual injury, observed (Ob) (kochia (KCHSC); compound 8 8.75 + CQC-m 0 g/ha): 77% | % visual injury, observed (Ob) (kochia (KCHSC); compound 8 17.5 + CQC-m 0 g/ha): 81% | % visual injury, observed (Ob) (kochia (KCHSC); compound 8 35 + CQC-m 0 g/ha): 95% | % visual injury, observed (Ob) (kochia (KCHSC); compound 8 70 + CQC-m 0 g/ha): 95% | % visual injury, observed (Ob) (wild mustard (SINAR); [1]): 76% | % visual injury, observed (Ob) (wild mustard (SINAR); compound 8 8.75 + CQC-m 0 g/ha): 82% | % visual injury, observed (Ob) (wild mustard (SINAR); compound 8 17.5 + CQC-m 0 g/ha): 96% | % visual injury, observed (Ob) (wild mustard (SINAR); compound 8 35 + CQC-m 0 g/ha): 99% | % visual injury, observed (Ob) (wild mustard (SINAR); compound 8 70 + CQC-m 0 g/ha): 98% | % visual injury, observed (Ob) (spring wheat (TRZAS); [1]): 7% | % visual injury, observed (Ob) (spring wheat (TRZAS); compound 8 8.75 + CQC-m 0 g/ha): 11% | % visual injury, observed (Ob) (spring wheat (TRZAS); compound 8 17.5 + CQC-m 0 g/ha): 35% | % visual injury, observed (Ob) (spring wheat (TRZAS); compound 8 35 + CQC-m 0 g/ha): 48% | % visual injury, observed (Ob) (spring wheat (TRZAS); compound 8 70 + CQC-m 0 g/ha): 60%
